Measured values taken from PMC9269349, “Characterization of Four New Compounds from Protea cynaroides Leaves and Their Tyrosinase Inhibitory Potential” (Plants, 2022).

target: mushroom tyrosinase (Agaricus bisporus, UniProt C7FF04); assay: Antityrosinase inhibition assay (L-tyrosine substrate, absorbance at 490 nm); type: biochemical; conditions: against L-tyrosine substrate
Description: The skin enzymatic inhibitory assay was executed during the study following the approach used by Curto et al. and Nerya et al.. Extracts and isolates were dissolved in dimethyl sulfoxide (DMSO) to a final concentration of 20 mg/mL. […] After incubation at room temperature for 5 min, 110 μL of the substrate (2 mM L-tyrosine) was added to each well. […] Incubation commenced for 30 min at room temperature by measuring the absorbance at 490 nm with the […]1.11).

Sequence of mushroom tyrosinase (G1K3P4 entry or part of it): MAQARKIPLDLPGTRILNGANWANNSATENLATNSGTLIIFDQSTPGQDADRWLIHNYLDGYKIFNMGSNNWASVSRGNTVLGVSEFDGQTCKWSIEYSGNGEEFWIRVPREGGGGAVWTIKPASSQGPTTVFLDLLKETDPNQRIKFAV
Sequence of mushroom tyrosinase (C7FF04 1-392): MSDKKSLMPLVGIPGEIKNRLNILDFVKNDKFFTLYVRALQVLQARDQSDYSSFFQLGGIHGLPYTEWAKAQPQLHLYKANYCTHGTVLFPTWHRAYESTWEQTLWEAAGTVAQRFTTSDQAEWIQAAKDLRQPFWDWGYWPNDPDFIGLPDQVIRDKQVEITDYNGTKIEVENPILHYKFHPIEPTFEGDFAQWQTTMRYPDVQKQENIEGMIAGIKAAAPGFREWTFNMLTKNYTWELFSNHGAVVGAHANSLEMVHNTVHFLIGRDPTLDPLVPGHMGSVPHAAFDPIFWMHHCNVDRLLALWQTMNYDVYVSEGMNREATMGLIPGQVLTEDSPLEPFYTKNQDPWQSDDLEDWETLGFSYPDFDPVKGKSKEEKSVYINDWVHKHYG

SMILES | tyrosinase inhibitory activity (in words)
O=C(O)c1ccc(O)c(O)c1 [Compound 7, 3,4-dihydroxybenzoic acid] | potent competitive tyrosinase inhibition
O=C(OCC1OC(Oc2c(CO)occc2=O)C(O)C(O)C1O)c1ccc(O)cc1 (centres unmarked) [Compound 3] | low inhibitory activity
O=C(O)c1ccc(O)cc1 [Compound 6, 4-hydroxybenzoic acid] | weak activity

Results, then the compound that gave them:

tyrosinase inhibitory activity (in words) | SMILES
potent competitive tyrosinase inhibition | O=c1c(O)coc(CO)c1O [Compound 8, 3-hydroxykojic acid]
weak activity | OC[C@H]1OC[C@H](O)[C@@H](O)[C@@H]1O [Compound 5, 1,5-anhydro-D-glucitol]
